The values that follow come from patent publication US20250154686A1, “COMPOUND LIBRARY” (CHUGAI SEIYAKU KABUSHIKI KAISHA, priority 2021, published 2025).

This assay deals with T1, Bcl-2 protein (Recombinant Human Bcl-2 Protein) (Homo sapiens, UniProt P10415).
T1 construct: purchased Novus Biologicals NBP2-34889
Nature of the assay: AS-MS evaluation of binding of the Example 4 mixture library (1200 compounds/well) to Bcl-2, ASMS ratio (%). The conditions noted are these: Bcl-2 protein; for ASMS ratio (%) n = 1: replicate n = 1; for ASMS ratio (%) n = 2: replicate n = 2. The method, then:
DMSO solutions (prepared into approximately 0.58 mM based on calculation from the average molecular weight of each mixture) of 12 types of mixtures that could each contain 100 compounds, i.e., mixAI-B4J-01, mixAI-B1M-01, mixAI-B1K-01, mixAI-BIO-01, mixAI-B1A-01, mixAI-B3A-01, mixAI-B21-01, mixAI-B2L-01, mixAI-B2N-01, mixAI-B2A-01, mixAI-B2Q-01, and mixAI-B2R-01, shown in Table AI-03-B4J-01, Table AI-03-B1M-01, Table AI-03-B1K-01, Table AI-03-B10-01, Table AI-03-B1A-01, Table AI-03-B3A-01, Table AI-03-B21-01, Table AI-03-B2L-01, Table AI-03-B2N-01, Table AI-03-B2A-01, Table AI-03-B2Q-01, and Table AI-03-B2R-01 described in Example 4, were respectively dispensed to a total of 12 wells of MICROPLATE, 96-well, PP, V-BOTTOM (Greiner Bio-One International GmbH, 651201). 70 nL each from the 12 wells was collected into any one well using LABCYTE ECHO® 555 acoustic dispensing system (Beckman Coulter, Inc.) to prepare a sample solution in a mixed state of 1200 compounds (the presence of 1152 compounds was already identified when the mixtures were prepared in Example 4). Further, Bcl-2 protein (Novus Biologicals, NBP2-34889, Recombinant Human Bcl-2 Protein, Lot E60145051) (19.2 μL) prepared at 20.9 μM in advance using a Tris-HCl buffer (25 mM Tris-HCl, pH 7.4, 150 mM NaCl, 0.025% Tween-20, and 1 mM DTT) was added to the well containing the dispensed 1200 compounds (the presence of 1152 compounds was already identified when the mixtures were prepared in Example 4) (final compound concentration: 20 nM, final Bcl-2 concentration: 20 μM), and the plate was incubated at 23° C. for 1 hour in the dark. Subsequently, 200 μL of an assay buffer (25 mM Tris-HCl, pH 7.4, 150 mM NaCl, 0.025% Tween-20, and 1 mM DTT) was centrifuged three times at 2000×G at 4° C. for 2 minutes using 96-well MacroSpin column, P-2 Material (Harvard Bioscience, Inc., 74-5655) that had been allowed to swell to condition the 96-well MacroSpin column. Subsequently, 20 μL of the sample thus incubated was added to the 96-well MacroSpin column, P-2 Material after the completion of conditioning, and SEC treatment was performed by centrifugation at 2000×G for 2 minutes. 32 μL of a 1:1 mixed solution of acetonitrile and methanol (LC/MS grade, FUJIFILM Wako Pure Chemical Corp.) was added to a flow-through liquid from SEC, and the mixture was centrifuged at 1800×G at 4° C. for 5 minutes. The supernatant was used as analysis sample ASMS (A). By a similar operation, a sample prepared at 1200 compounds/well and supplemented with only a Tris-HCl buffer containing no Bcl-2 protein was incubated under the same conditions as above, and the same organic solvent as above was added thereto without 96-well MacroSpin column treatment. A supernatant obtained by a centrifugation operation was used as STD (B). Next, by a similar operation, a sample prepared at 1200 compounds/well and supplemented with only a Tris-HCl buffer containing no Bcl-2 protein was incubated under the same conditions as above and treated with 96-well MacroSpin column in the same manner as above, and the same organic solvent as above was added thereto. A supernatant obtained by a centrifugation operation was used as BK (C). These samples were measured by reverse-phase LC/MS.
Then, the samples A, B and C were analyzed for the 1200 compounds using TraceFinder 5.1 (Thermo Fisher Scientific Inc.) and CHANCE Software (in-house), and an ASMS ratio (%) was calculated according to the following expression.
Although m/z of the MS peaks was confirmed down to four decimal places, 0 at the decimal level may be omitted in the description in Table AJ-01. For example, “587.0000” is also referred to as “587”, “587.1000” is also referred to as “587.1”, “587.1200” is also referred to as “587.12”, and “587.1230” is also referred to as “587.123”.

Setting [1] is: AS-MS, mixture of 1200 compounds/well.
Where [2] appears, read: mixture library of 1200 compounds/well, compounds assigned by expected m/z.

T1 sequence (P10415 whole entry): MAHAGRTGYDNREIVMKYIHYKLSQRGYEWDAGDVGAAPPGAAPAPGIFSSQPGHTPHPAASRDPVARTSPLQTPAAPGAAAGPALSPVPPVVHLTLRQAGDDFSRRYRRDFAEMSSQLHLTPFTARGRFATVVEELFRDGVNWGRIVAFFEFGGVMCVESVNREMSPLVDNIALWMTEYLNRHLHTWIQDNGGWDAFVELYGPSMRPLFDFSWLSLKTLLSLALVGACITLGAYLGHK

“4-[4-[[2-[2-(3-Ethoxyphenyl)ethynyl]phenyl]methyl]piperazin-1-yl]-N-propylbenzamide [Compound B1M052-01]”: under setting [1], the “ASMS ratio (%) n = 1” value amounted to 27.6% and the “ASMS ratio (%) n = 2” value amounted to 20.2%.
With “4-[4-[[4-(3-Ethoxyphenyl)-3-fluorophenyl]methyl]piperazin-1-yl]-N-propylbenzamide [Compound B1M079-01]”, under setting [1], the “ASMS ratio (%) n = 1” value is on record as 8.1%.
On the same count and under the same terms, the same measure for “4-[4-[[4-(3-Ethoxyphenyl)-3-methylphenyl]methyl]piperazin-1-yl]-N-propylbenzamide [Compound B1M058-01]”: −1.4%.
Regarding “4-[4-[[4-(5-Ethoxypyridin-3-yl)-2-ethylphenyl]methyl]piperazin-1-yl]-N-propylbenzamide [Compound B1M075-01]”, under setting [1], the “ASMS ratio (%) n = 1” value was found to be 77.3% and the “ASMS ratio (%) n = 2” value was found to be 46.1%.
Consider “6-[4-[[2-(5-Ethoxypyridin-3-yl)phenyl]methyl]piperazin-1-yl]-N-propylpyridazine-3-carboxamide [Compound B1M043-01]”, for which, under setting [1], the “ASMS ratio (%) n = 1” value came out at 2.2%.
In the case of `CCOc1cncc(-c2cc(C(=O)N3CCN(c4ccc(C(=O)NCC56CC7CC(CC(C7)C5)C6)nn4)CC3)cc(C(C)(C)C)c2)c1` [Compound B1A016-01, N-(1-Adamantylmethyl)-6-[4-[3-tert-butyl-5-(5-ethoxypyridin-3-yl)benzoyl]piperazin-1-yl]pyridazine-3-carboxamide], under setting [2], the “ASMS ratio (%) n = 2” value was −4. %.
In the case of `CCOc1cccc(-c2cc(CN3CCN(c4ccc(C(=O)NCC56CC7CC(CC(C7)C5)C6)nn4)CC3)cc(OCC)c2)c1` [Compound B1A081-01, N-(1-Adamantylmethyl)-6-[4-[[3-ethoxy-5-(3-ethoxyphenyl)phenyl]methyl]piperazin-1-yl]pyridazine-3-carboxamide], the “ASMS ratio (%) n = 2” value under setting [2] is recorded as −5. %.
Take `CCOc1cccc(-c2cc(CN3CCN(c4ccc(C(=O)NCC(F)(F)F)cc4)CC3)cc(OC(F)(F)F)c2)c1` [Compound B1K063-01, 4-[4-[[3-(3-Ethoxyphenyl)-5-(trifluoromethoxy)phenyl]methyl]piperazin-1-yl]-N-(2,2,2-trifluoroethyl)benzamide]: under setting [1], the “ASMS ratio (%) n = 1” value is recorded as 3.9% and the “ASMS ratio (%) n = 2” value is 0.4%.
Taken in the same sequence, the figures for `CCCNC(=O)c1ccc(N2CCN(C(=O)c3ccc(-c4cccc(OCC)c4)c(C)c3)CC2)nn1` [Compound B1M003-01] were −1.9% and 2.0%.
Consider `CCCNC(=O)c1ccc(N2CCN(C(=O)c3ccc(-c4cncc(OCC)c4)c(C)c3)CC2)nn1` [Compound B1M004-01], for which, under setting [1], the “ASMS ratio (%) n = 1” value is given as 0.0% and the “ASMS ratio (%) n = 2” value was found to be 0.0%.
For `CCCNC(=O)c1ccc(N2CCN(C(=O)c3ccc(-c4cncc(OCC)c4)c(F)c3)CC2)nn1` [Compound B1M006-01], under setting [1], the “ASMS ratio (%) n = 1” value turned out to be 0.0% and the “ASMS ratio (%) n = 2” value turned out to be 0.0%.
As for `CCCNC(=O)c1ccc(N2CCN(C(=O)c3ccccc3C#Cc3cccc(OCC)c3)CC2)nn1` [Compound B1M007-01], under setting [1], the “ASMS ratio (%) n = 1” value is listed as 0.3% and the “ASMS ratio (%) n = 2” value worked out at 0.3%.
Consider `CCCNC(=O)c1ccc(N2CCN(C(=O)c3ccccc3C#Cc3cncc(OCC)c3)CC2)nn1` [Compound B1M008-01], for which the “ASMS ratio (%) n = 2” value under setting [1] turned out to be 0.0%.
Still for that read-out and setting: the same measure for `CCCNC(=O)c1ccc(N2CCN(C(=O)c3cncc(C#Cc4cccc(OCC)c4)c3)CC2)nn1` [Compound B1M009-01]: 0.0%.
Turning to `CCCNC(=O)c1ccc(N2CCN(C(=O)c3cncc(C#Cc4cncc(OCC)c4)c3)CC2)nn1` [Compound B1M010-01], under setting [1], the “ASMS ratio (%) n = 1” value is given as 0.0% and the “ASMS ratio (%) n = 2” value was determined as 0.0%.
With `CCCNC(=O)c1ccc(N2CCN(C(=O)CCc3ccccc3-c3cccc(OCC)c3)CC2)nn1` [Compound B1M011-01], under setting [1], the “ASMS ratio (%) n = 1” value worked out at 18.6% and the “ASMS ratio (%) n = 2” value came to 7.5%.
Taken in the same sequence, the figures for `CCCNC(=O)c1ccc(N2CCN(Cc3cc(OCC)cc(-c4cncc(OCC)c4)c3)CC2)nn1` [Compound B1M012-01, 6-[4-[[3-Ethoxy-5-(5-ethoxypyridin-3-yl)phenyl]methyl]piperazin-1-yl]-N-propylpyridazine-3-carboxamide] were −3.5% and −2.3%.
For the compound `CCCNC(=O)c1ccc(N2CCN(C(=O)c3ccc(-c4cccc(OCC)c4)c4ccccc34)CC2)nn1` [Compound B1M013-01], under setting [1], the “ASMS ratio (%) n = 1” value came to 2.9% and the “ASMS ratio (%) n = 2” value is −1.1%.
Taken in the same sequence, the figures for `CCCNC(=O)c1ccc(N2CCN(C(=O)c3ccc(-c4cncc(OCC)c4)c4ccccc34)CC2)nn1` [Compound B1M014-01] were 4.1% and 0.4%.
Taken in the same sequence, the figures for `CCCNC(=O)c1ccc(N2CCN(C(=O)c3cc(-c4cccc(OCC)c4)cc(C(C)(C)C)c3)CC2)nn1` [Compound B1M015-01] were −2.4% and −3.0%.
For the compound `CCCNC(=O)c1ccc(N2CCN(C(=O)c3cc(-c4cncc(OCC)c4)cc(C(C)(C)C)c3)CC2)nn1` [Compound B1M016-01], under setting [1], the “ASMS ratio (%) n = 1” value amounted to 0.0% and the “ASMS ratio (%) n = 2” value is 0.0%.
Take `CCCNC(=O)c1ccc(N2CCN(C(=O)c3cc(-c4cccc(OCC)c4)cc(C(F)(F)F)c3)CC2)nn1` [Compound B1M017-01]: under setting [1], the “ASMS ratio (%) n = 1” value is reported as −0.1% and the “ASMS ratio (%) n = 2” value stood at 0.3%.
The matching figures for `CCCNC(=O)c1ccc(N2CCN(C(=O)c3cc(-c4cncc(OCC)c4)cc(C(F)(F)F)c3)CC2)nn1` [Compound B1M018-01]: 0.0% and 0.0%.
Taken in the same sequence, the figures for `CCCNC(=O)c1ccc(N2CCN(C(=O)c3cc(C#Cc4cccc(OCC)c4)cc(C(F)(F)F)c3)CC2)nn1` [Compound B1M019-01] were 1.5% and 0.0%.
Taken in the same sequence, the figures for `CCCNC(=O)c1ccc(N2CCN(C(=O)c3cc(C#Cc4cncc(OCC)c4)cc(C(F)(F)F)c3)CC2)nn1` [Compound B1M020-01] were 0.0% and 0.0%.
On to `CCCNC(=O)c1ccc(N2CCN(C(=O)c3cc(-n4cc(-c5cccc(OCC)c5)cn4)cc(C(F)(F)F)c3)CC2)nn1` [Compound B1M021-01], for which, under setting [1], the “ASMS ratio (%) n = 1” value was 0.0% and the “ASMS ratio (%) n = 2” value came to 0.0%.
Regarding `CCCNC(=O)c1ccc(N2CCN(C(=O)c3cc(-n4cc(-c5cncc(OCC)c5)cn4)cc(C(F)(F)F)c3)CC2)nn1` [Compound B1M022-01], under setting [1], the “ASMS ratio (%) n = 1” value was −13.6% and the “ASMS ratio (%) n = 2” value is 6.7%.
The matching figures for `CCCNC(=O)c1ccc(N2CCN(C(=O)c3cc(-c4cccc(OCC)c4)cs3)CC2)cc1` [Compound B1M023-01]: 1.4% and −3.0%.
Taken in the same sequence, the figures for `CCCNC(=O)c1ccc(N2CCN(C(=O)c3cc(-c4cncc(OCC)c4)cs3)CC2)cc1` [Compound B1M024-01] were 0.0% and 0.0%.
